# In patent US20200222400A1, “METHODS FOR THE TREATMENT OF NEUROLOGICAL DISORDERS” (Yumanity Therapeutics, Inc., priority 2019, published 2020):
# Columns and labels:
# [1] = target: T1, human SCD5 (Homo sapiens, UniProt Q86SK9); assay: Growth of humanized yeast expressing human SCD5 as sole desaturase; assay type: cell-based, Saccharomyces cerevisiae expressing Saccharomyces cerevisiae expressing Saccharomyces cerevisiae expressing Saccharomyces cerevisiae expressing Saccharomyces cerevisiae expressing human SCD5 SCD5 SCD5 SCD5 SCD5; conditions: yeast growth
# T1 construct: host or cells: S. cerevisiae ole1Δ strain (W303 pdr1Δ pdr3Δ background), pRS316 plasmid, TDH3 promoter
# T1 sequence (Q86SK9 1-330): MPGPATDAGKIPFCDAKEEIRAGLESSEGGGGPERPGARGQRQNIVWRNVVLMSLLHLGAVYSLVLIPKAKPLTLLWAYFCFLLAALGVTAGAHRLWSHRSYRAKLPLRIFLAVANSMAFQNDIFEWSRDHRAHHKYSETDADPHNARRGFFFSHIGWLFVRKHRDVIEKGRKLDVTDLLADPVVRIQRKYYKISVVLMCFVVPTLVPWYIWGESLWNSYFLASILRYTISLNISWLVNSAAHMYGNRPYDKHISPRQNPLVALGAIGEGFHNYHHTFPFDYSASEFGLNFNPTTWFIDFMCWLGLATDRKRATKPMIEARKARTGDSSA
# Excerpt: To generate yeast strains expressing SCD1 or SCD5 as the sole desaturase, the human SCD1 and SCD5 genes were cloned from cDNAs (Harvard PlasmID database Clone ID HsCD00340237 for SCD1 and HsCD00342695 for SCD5) into yeast plasmid pRS316 (ATCC 77145) between the yeast TDH3 promoter and the CYC1 terminator. The coding sequence of yeast OLE1 was also cloned into this plasmid). These clones were then transformed into the ole1Δ strain and plated on CSM-Ura media (CSM lacking uracil) with 2% glucose (w/v) and independent colonies were isolated and amplified.
# All compound profiling experiments were performed using the same basic protocol. Different genetic backgrounds (e.g., gene deletions) or conditions (e.g., addition of oleic and palmitoleic acid) were replaced as indicated below.
# Compound stocks (10 mM in 100% DMSO) were arrayed into 384 round well, v-bottom polypropylene plates and diluted according to indicated dilution factors. Compound administration was performed in two separate steps. First, 15 μL of CSM-Galactose (induces expression of toxic protein) was dispensed into clear 384 well assay plates using a MULTIDROP™ Combi reagent dispenser. The diluted compound stock plates were then applied to the assay plates using an automated workstation (Perkin Elmer JANUS™) outfitted with a 384 pin tool containing slotted pins that deliver 100 nL of compound. The cultures described above were then diluted to a 2× concentration (0.03 and 0.08 for alpha-synuclein and ApoE, final OD600 of 0.015 and 0.04) in CSM-Galactose. For wild-type and Ole1/SCD1/SCD5 plasmid-containing strains, the 2× cell density was 0.02. In all experiments, 15 μL culture was then dispensed into the pinned assay plate to achieve 30 μL of the 1×OD600 culture and a top drug concentration of […]. For 96-well assays (FIGS. 2A and 2B), compound dilutions in DMSO were generated in 96 well plates and 1 μL was manually pipetted into 96 well clear bottom assay plates.
# For experiments using a plasmid-borne copy of Ole1, SCD1, or SCD5 (FIGS. 4B, 7, and 8), media lacking uracil (SX-Ura, where X is glucose, raffinose, or galactose), was used for all steps of the compound profiling protocol to ensure its maintenance throughout the assay.
# After yeast delivery, assay plates were incubated under humidified conditions at 30° C. for 24 to 40 h. ApoE4 rescue experiments were stopped at 24 h, aSyn experiments at 40 h, Ole1 at 24 h, and SCD1/SCD5 at 40 h. The growth of yeast was monitored by reading the OD600 of each well using a microplate reader (Perkin Elmer EnVision™). For model rescue experiments, raw data were processed by background subtracting and calculating a fold-change relative to DMSO control [(EXP−0.035)/(DMSO−0.035)—where 0.035 is the OD600 contributed by an empty well containing 30 μL of media alone]. For growth inhibition of wild-type cells, raw data were processed by background subtracting and converting values to a percent of the nontreated condition for that strain [(EXP−0.035)/(DMSO−0.035)×100%].
# [2] = tested on: human iPSC-derived neurons harboring the alpha-synuclein A53T mutation; assay: Neuron survival assay, iPSC-derived neurons harboring alpha-synuclein A53T mutation; assay type: cell-based; conditions: 100 nM and 30 nM, relative to DMSO in A53T neurons
# Experimental: Human control and patient-derived trans-differentiated neurons were transfected with an RFP reporter driven by the human MAP2 promoter (MAP2-mApple) following the protocol for rat primary neurons as described above with the following exceptions: lipofection was carried out for approximately 1 h, and the final media replacement was with BrainPhys™ media supplemented with BDNF, GNDF, cAMP, ascorbic acid, and laminin.
# (§1) Transfected neuronal cultures were imaged at 12-24 h intervals for the indicated number of days by robotic microscopy. Fluorescence images were acquired with a Nikon Eclipse Ti microscope equipped with a motorized stage, 20× extra-long working distance (ELWD) objective, and an Andor Zyla cMOS camera. During image acquisition, microplates were enclosed in an on-stage environmental chamber controlling temperature, CO2, and humidity (Okolab). Images were processed and analyzed with custom-made scripts in R and ImageJ software. The lifetimes of individual neurons were determined by tracking fluorescently-labeled neurons in ImageJ. Neuronal death was determined to occur upon incidence of RFP signal loss or rupture of cell body. Cox proportional hazards analysis was used to generate cumulative hazard plots and determine the risk of neuron death. Log-rank test was used to determine statistical significance of survival curve divergence between neuron cohorts.
# [3] = tested on: A53T α-synuclein transfected human iPSC-derived neurons; assay: Neuron survival assay, A53T α-synuclein transfected human iPSC-derived neurons; assay type: cell-based; conditions: all tested concentrations, 3 μM to 0.3 μM, relative to DMSO
# Experimental: as §1
# A model of α-synuclein toxicity utilizing transient transfection into human iPSC-derived neurons was developed. […] This model was utilized to evaluate the role of SCD in α-synuclein-dependent neuronal toxicity. Human iPSC-derived neurons were transfected with a construct encoding A53T α-synuclein or an empty vector control. […]
smiles,measurement,setting,value
Cc1nnc(-c2ccc(N3CCC(Oc4cc(F)ccc4Cl)CC3)nn2)o1 [CAY10566],"half-maximal inhibitory concentration (IC50), SCD5 humanized strain",[1],low nanomolar
same,risk of neuron death,[2],significantly reduced
same,risk of neuron death,[3],significantly reduced
